Positions of bridges follow the written chain, without caps; N, C: chain ends. Non-standard residues stand in square brackets, D forms with d. Residues, ends and D or L forms follow the SMILES beside them. Pro(trans-4-F) = O=C(O)[C@@H]1C[C@@H](F)CN1; αMeL = CC(C)C[C@](C)(N)C(=O)O; Chg = N[C@H](C(=O)O)C1CCCCC1; hLeu = CC(C)CC[C@H](N)C(=O)O; Pip = O=C(O)[C@@H]1CCCCN1; Ac5c = NC1(C(=O)O)CCCC1; Dap = NC[C@H](N)C(=O)O; Aib = CC(C)(N)C(=O)O; Sar = CNCC(=O)O
Target: T1, human Oxytocin (OTR) receptor (Homo sapiens, UniProt P30559)
T1 construct: expressed in transfected cells
T1 sequence (P30559 1-389): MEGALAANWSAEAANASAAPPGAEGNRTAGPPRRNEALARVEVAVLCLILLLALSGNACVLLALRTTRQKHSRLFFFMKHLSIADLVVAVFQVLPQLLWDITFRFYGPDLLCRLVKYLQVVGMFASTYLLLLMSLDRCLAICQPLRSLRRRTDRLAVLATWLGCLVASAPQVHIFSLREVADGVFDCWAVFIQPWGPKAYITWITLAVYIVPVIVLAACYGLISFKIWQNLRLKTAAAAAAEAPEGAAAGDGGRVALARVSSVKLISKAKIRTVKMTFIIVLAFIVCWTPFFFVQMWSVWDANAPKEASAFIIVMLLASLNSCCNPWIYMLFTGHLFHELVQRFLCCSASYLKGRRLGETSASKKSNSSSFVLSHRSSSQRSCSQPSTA
Test: Calcium flux assay (FLIPR), agonist mode, CHO cells expressing human OTR
Assay type: cell-based
Details: for EC50: CHO cells stably expressing human OTR, calcium flux, read-out: hOT EC50; for hOT efficacy (%) / Emax: maximum response normalized to endogenous full agonist = 100%; for Emax: CHO, read-out: hOT efficacy (%)
Excerpt: Chines Hamster Ovary (CHO) cells were transfected with expression plasmids encoding either the human V1a, the human Oxytocin (OTR) or the humanV2 receptor, the later in combination with the chimeric Gqs5 G protein to redirect the signal to Calcium flux. Stable cells were cloned by limiting dilution to yield monoclonal cell lines expressing either human V1a, human V2+Gqs5 or human OTR receptors and selected based on functional responses detected on a fluorometric imaging plate reader (FLIPR) detecting Calcium flux in the cell after receptor activation.
On the afternoon before the assay, cells were plated at a density of 50,000 cells/well into black 96 well plates with clear bottoms to allow cell inspection and fluorescence measurements from the bottom of each well. The density of cells was sufficient to yield a confluent monolayer the next day. Hanks balanced salt solution, without phenol red, containing 20 mM HEPES (pH 7.3) and 2.5 mM probenecid (assay buffer) was prepared fresh for each experiment. Compound dilutions were made using a Beckman Biomek 2000 laboratory automation workstation, in assay buffer containing 1% DMSO. The dye-loading buffer consisted of a final concentration of 2 μM Fluo-4-AM (dissolved in DMSO and pluronic acid) in assay buffer. […] Once dye-loaded, the cells were washed thoroughly on an Embla cell washer with the assay buffer to remove any unincorporated dye. Exactly 100 μl assay buffer was left in each well.
Each 96 well plate containing dye-loaded cells was placed into the FLIPR machine and the laser intensity set to a suitable level to detect low basal fluorescence. To test compounds as agonists, 25 μl diluted compound was added to the plate 10 seconds into the fluorescent measurements and fluorescent response was recorded for 5 minutes. The fluorescence data was normalized to the endogenous full agonist dose-response set at 100% for the maximum response and 0% for the minimum. […] The concentration of agonist that produced a half-maximal response is represented by the EC50 value, the logarithm of which yielded the pEC50 value.

Row | Structure (SMILES) | EC50 [nM] | hOT efficacy (%) | Emax [%]
1 | CC[C@H](C)[C@@H]1NC(=O)[C@H](Cc2ccc(O)cc2)NC(=O)CNC(=O)CC[C@@H](C(=O)N2CCC[C@H]2C(=O)N[C@@](C)(CC(C)C)C(=O)NCC(N)=O)NC(=O)[C@H](CC(N)=O)NC(=O)[C@H](CCC(N)=O)NC1=O [Example 36] (GYIQNEP[αMeL]G-NH2; lactam N-6) | 41 | 138 | –
2 | CC[C@H](C)[C@@H]1NC(=O)[C@H](Cc2ccc(O)cc2)NC(=O)CNC(=O)CC[C@@H](C(=O)N(C)CC(=O)N[C@@H](CC(C)C)C(=O)NCC(N)=O)NC(=O)[C@H](CC(N)=O)NC(=O)[C@H](C)NC1=O [Example 37] (GYIANE[Sar]LG-NH2; lactam N-6) | 4 | – | 137
3 | CC[C@H](C)[C@@H]1NC(=O)[C@H](Cc2ccc(O)cc2)NC(=O)CNC(=O)CC[C@@H](C(=O)N(C)CC(=O)N[C@@H](Cc2c[nH]c3ccccc23)C(=O)NCC(N)=O)NC(=O)[C@H](CC(N)=O)NC(=O)[C@H](CCC(N)=O)NC1=O [Example 38] (GYIQNE[Sar]WG-NH2; lactam N-6) | 1 | – | 126
4 | CC[C@H](C)[C@@H]1NC(=O)[C@H](Cc2ccc(O)cc2)NC(=O)CNC(=O)CC[C@@H](C(=O)N(C)CC(=O)N[C@H](C(=O)NCC(N)=O)C2CCCCC2)NC(=O)[C@H](CC(N)=O)NC(=O)[C@H](CCC(N)=O)NC1=O [Example 41] (GYIQNE[Sar][Chg]G-NH2; lactam N-6) | 69 | 117 | –
5 | CC[C@H](C)[C@@H]1NC(=O)[C@H](Cc2ccc(O)cc2)NC(=O)CNC(=O)CC[C@@H](C(=O)N(C)CC(=O)N[C@@H](CN)C(=O)NCC(N)=O)NC(=O)[C@H](CC(N)=O)NC(=O)[C@H](CCC(N)=O)NC1=O [Example 42] (GYIQNE[Sar][Dap]G-NH2; lactam N-6) | 1 | – | 119
6 | CC[C@H](C)[C@@H]1NC(=O)[C@H](Cc2ccc(O)cc2)NC(=O)CNC(=O)CC[C@@H](C(=O)N(C)CC(=O)N[C@@H](CCC(C)C)C(=O)NCC(N)=O)NC(=O)[C@H](CC(N)=O)NC(=O)[C@H](CCC(N)=O)NC1=O [Example 43] (GYIQNE[Sar][hLeu]G-NH2; lactam N-6) | 26 | 124 | –
7 | CC[C@H](C)[C@@H]1NC(=O)[C@H](Cc2ccc(O)cc2)NC(=O)CNC(=O)CC[C@@H](C(=O)N2C[C@H](F)C[C@H]2C(=O)N[C@@H](CC(C)C)C(=O)NCC(N)=O)NC(=O)[C@H](CC(N)=O)NC(=O)[C@H](CCC(N)=O)NC1=O [Example 46] (GYIQNE[Pro(trans-4-F)]LG-NH2; lactam N-6) | 10 | 104 | –
8 | CC[C@H](C)[C@@H]1NC(=O)[C@H](Cc2ccc(O)cc2)NC(=O)CNC(=O)CC[C@@H](C(=O)N2CCCC[C@H]2C(=O)N[C@@H](CC(C)C)C(=O)NCC(N)=O)NC(=O)[C@H](CC(N)=O)NC(=O)[C@H](CCC(N)=O)NC1=O [Example 47] (GYIQNE[Pip]LG-NH2; lactam N-6) | 1.5 | – | 111
9 | CC[C@H](C)[C@@H]1NC(=O)[C@H](Cc2ccc(O)cc2)NC(=O)CNC(=O)CC[C@@H](C(=O)N(C)CC(=O)NC2(C(=O)NCC(N)=O)CCCC2)NC(=O)[C@H](CC(N)=O)NC(=O)[C@H](CCC(N)=O)NC1=O [Example 48] (GYIQNE[Sar][Ac5c]G-NH2; lactam N-6) | 3.6 | – | 108
10 | CC[C@H](C)[C@@H]1NC(=O)[C@H](Cc2ccc(O)cc2)NC(=O)CNC(=O)CC[C@@H](C(=O)N(C)CC(=O)NC(C)(C)C(=O)NCC(N)=O)NC(=O)[C@H](CC(N)=O)NC(=O)[C@H](CCC(N)=O)NC1=O [Example 49] (GYIQNE[Sar][Aib]G-NH2; lactam N-6) | 5.9 | – | 97
11 | CC[C@H](C)[C@@H]1NC(=O)[C@H](Cc2ccc(O)cc2)NC(=O)CNC(=O)CC[C@@H](C(=O)N(C)CC(=O)N[C@@H](CC(C)C)C(=O)NCC(N)=O)NC(=O)[C@H](CC(N)=O)NC(=O)[C@H](CO)NC1=O [Example 52] (GYISNE[Sar]LG-NH2; lactam N-6) | 4.3 | – | 121
